Test results taken from patent publication US20160101076A1, “Use of Sumoylation Inhibitors for Treating Cancer” (priority 2013, published 2016).

Legend:
[1] = system: Colorectal cancer stem cells (CSC); assay: Stem cell markers in primary colorectal cancer stem cells (qPCR, Western blot); assay type: cell-based; conditions: 10 μM, 48 hours
Procedure: […]: qPCR, CD44 downregulation after treatment of colorectal CSC with anacardic acid, 48 h. […]: qPCR, ALCAM (activated leucocyte cell adhesion molecule) after treatment of colorectal CSC with anacardic acid, 48 h. FIG. 17C: qPCR, EPCAM (epithelial cell adhesion molecule) after treatment of colorectal CSC with anacardic acid, 48 h. FIG. 17D: Western blot, CD44 downregulation after treatment of colorectal CSC with anacardic acid, 48 h.
Informed consent primary colorectal tumor material was obtained during operation and was transferred to lab. Colorectal cancer stem cells (CSC) were isolated accordingly Cammareri et al, 2008 and treated with 10 μM anacardic acid within 48 hours.

[2] = system: IOWA-1T xenografts; assay: IOWA-1T xenografts, animals gavaged; assay type: in vivo; conditions: nude mice inoculated with 1×10^6, 5×10^5 or 2.5×10^5 IOWA-1T cells, gavaged vs vehicle; p=0.025; FIG. 8D
Excerpt: (§1) FIGS. 8A-8D. SUMO Inhibitors Repressed Outgrowth of Xenografts. FIG. 8A. […] FIG. 8B. Tumor-free survival of nude mice (n=5 per group) inoculated with BT20 cells with animals gavaged with AA vs. vehicle. FIG. 8C. IOWA-1T cells were pre-treated with anacardic acid (AA) or vehicle and mice were followed until requiring euthanasia due to tumor size (Overall Survival). […] FIG. 8D. Nude mice were inoculated with 1×10^6, 5×10^5, or 2.5×10^5 IOWA-1T cells and animals were gavaged with either vehicle or AA; vehicle-gavaged mice developed tumors in 5, 10 and 12 days, respectively.
(§2) To address the effects of GA and AA on tumor initiation, BT20 cells were pretreated with GA or AA compared to vehicle prior to inoculation of xenografts in nude mice. As noted in FIG. 8A, pretreatment of the cells repressed the formation of tumor xenografts, whereas, vehicle treated cells formed xenografts with a median time of 8 weeks. […] We created a breast carcinoma cell line (IOWA-1T) from the basal tumor-derived cells used in FIG. 6A. The IOWA-1T cell line rapidly forms locally advanced tumors in nude mice. Identical experiments using the IOWA-1T basal cell line confirmed that either pre-treating the cancer cells or gavaging animals with AA repressed tumor initiation of xenografts (FIGS. 8C and 8D).
(§3) Statistical analysis was performed using the two-sided Student's T-test for continuous variables. […]

[3] = system: SUMO-conjugated proteins, SUMO-conjugated form of TFAP2A in BT549 cells; assay: Western blot of SUMO-conjugated proteins in BT549 cells; assay type: cell-based, human; conditions: vs vehicle
Procedure: FIG. 16. Anacardic Acid Inhibits SUMO-conjugated Proteins. Western blots were performed on protein extracts of BT549 cells treated with vehicle (V) or anacardic acid (AA) and reacted with antibodies for SUMO1, TFAP2A or GAPDH, as indicated. Equal amounts of protein were loaded in each lane. […] GAPDH control indicates equal loading of protein. MW indicates molecular weight markers.
Western blots were performed as previously described (Cyr et al., 2014; Kulak et al., 2013). For immunoprecipitations anti-TFAP2A, anti-GFP antibody (Life Technologies) or IgG (#sc-2025, Santa Cruz Biotechnology) were cross-linked with Dynabeads protein A (Life Technologies). MCF7 protein was incubated with Dynabeads protein A-Abs complex, protein complexes were washed with DPBS (Gibco) with 0.01% Tween (Research Products International Corp.), and eluted with SDS loading buffer.
Cells were plated ([…]/10 cm2) and treated with 10 μM gingolic or anacardic acid (Sigma) for 2-4 days and collected for qPCR, Western blot and FACS analysis.

[4] = system: IOWA-1T xenografts; assay: IOWA-1T xenografts from pre-treated cells; assay type: in vivo; conditions: IOWA-1T cells pre-treated vs vehicle, nude mice; p=0.002; FIG. 8C
Excerpt: as §1, §2, §3

[5] = system: BT20 xenografts; assay: BT20 xenografts, animals gavaged; assay type: in vivo; conditions: BT20 xenografts in nude mice, animals gavaged vs vehicle; FIG. 8B
Excerpt: as §1
as §2, with “8D). […]” for “8D).”

SMILES: CCCCCCCCCCCCCCCc1cccc(O)c1C(=O)O [AA, Anacardic acid (C15:0)]
- CD44 by qPCR ([1]; FIG. 17A): down regulated
- ALCAM by qPCR ([1]; FIG. 17B): down regulated
- EPCAM by qPCR ([1]; FIG. 17C): down regulated
- CD44 by Western blot ([1]; FIG. 17D): reduction
- tumor formation [2]: failed to form tumors
- SUMO conjugated form of TFAP2A ([3]; Western blot FIG. 16): inhibited
- overall expression of TFAP2A ([3]; Western blot FIG. 16): decrease slightly
- SUMO conjugation of proteins globally ([3]; Western blot SUMO1 antibody, FIG. 16): inhibited
- tumor formation (overall survival) [4]: inhibited tumor formation
- tumor formation (tumor-free survival) [5]: failed to form tumors
